Measured values reported in PMC3041267 (Angewandte Chemie (International ed. in English), 2009).

Test system: HDAC activity in HeLa cell nuclear extracts
Type: biochemical
Details: read-out: IC50, inhibition of HDAC activity in HeLa cell nuclear extracts; preliminary assessment, fluorescence assay

CCC(=O)CCCCC[C@@H]1NC(=O)[C@H]2CCCCN2C(=O)[C@H]([C@@H](C)CC)NC(=O)[C@H](Cc2cn(OC)c3ccccc23)NC1=O [apicidin] was tested, and the IC50 was ≤ 100 nM.
